# Experimental data from ChEMBL document CHEMBL4393707, “Synthesis and evaluation of new quinazolin-4(3H)-one derivatives as potent antibacterial agents against multidrug resistant Staphylococcus aureus and Mycobacterium tuberculosis” (Eur J Med Chem, 2019).
# How the values were obtained:
# Type in all cases: functional
# Acinetobacter baumannii = assay: Antibacterial activity against Acinetobacter baumannii BAA1605 incubated for 16 to 18 hrs by broth microdilution assay
# Klebsiella pneumoniae = assay: Antibacterial activity against Klebsiella pneumoniae ATCC BAA-1705 incubated for 16 to 18 hrs by broth microdilution assay
# Staphylococcus aureus = assay: Antibacterial activity against Staphylococcus aureus ATCC 29213 incubated for 16 to 18 hrs by broth microdilution assay
# Escherichia coli = assay: Antibacterial activity against Escherichia coli ATCC 25922 incubated for 16 to 18 hrs by broth microdilution assay
# Pseudomonas aeruginosa = assay: Antibacterial activity against Pseudomonas aeruginosa ATCC 27853 incubated for 16 to 18 hrs by broth microdilution assay
# [1] = system: Mycobacterium tuberculosis; assay: Antitubercular activity against Mycobacterium tuberculosis H37Rv after 7 days by resazurin dye based assay; conditions: 168 h
compound,measurement,setting,value
Cc1nc2cc(-n3cc(COc4ccccc4)nn3)ccc2c(=O)n1-c1ccccc1,MIC,Acinetobacter baumannii,> 64 µg/mL
same,MIC,Klebsiella pneumoniae,> 64 µg/mL
same,MIC,Staphylococcus aureus,> 64 µg/mL
same,MIC,Escherichia coli,> 64 µg/mL
same,MIC,Pseudomonas aeruginosa,> 64 µg/mL
same,MIC,[1],> 64 µg/mL
COc1cc(-n2cc(COc3ccc4nc(C)n(-c5ccccc5)c(=O)c4c3)nn2)cc(OC)c1OC,MIC,Acinetobacter baumannii,> 64 µg/mL
same,MIC,Klebsiella pneumoniae,> 64 µg/mL
same,MIC,Staphylococcus aureus,> 64 µg/mL
same,MIC,Escherichia coli,> 64 µg/mL
same,MIC,Pseudomonas aeruginosa,> 64 µg/mL
same,MIC,[1],> 64 µg/mL
COc1ccc(-c2cn(-c3ccc4c(=O)n(-c5ccccc5)c(/C=C/c5ccc(C#N)cc5)nc4c3)nn2)cc1,MIC,Acinetobacter baumannii,> 64 µg/mL
same,MIC,Klebsiella pneumoniae,> 64 µg/mL
same,MIC,Staphylococcus aureus,> 64 µg/mL
same,MIC,Escherichia coli,> 64 µg/mL
same,MIC,Pseudomonas aeruginosa,> 64 µg/mL
same,MIC,[1],> 64 µg/mL
Cc1nc2ccc(-c3ccc(F)cc3)cc2c(=O)n1-c1cccc(Cl)c1,MIC,Acinetobacter baumannii,> 64 µg/mL
same,MIC,Klebsiella pneumoniae,> 64 µg/mL
same,MIC,Staphylococcus aureus,> 64 µg/mL
same,MIC,Escherichia coli,> 64 µg/mL
same,MIC,Pseudomonas aeruginosa,> 64 µg/mL
same,MIC,[1],> 64 µg/mL
C#CCNc1ccc2c(=O)n(-c3ccccc3)c(/C=C/c3ccc(C#N)cc3)nc2c1,MIC,Acinetobacter baumannii,> 64 µg/mL
same,MIC,Klebsiella pneumoniae,> 64 µg/mL
same,MIC,Staphylococcus aureus,> 64 µg/mL
same,MIC,Escherichia coli,> 64 µg/mL
same,MIC,Pseudomonas aeruginosa,> 64 µg/mL
same,MIC,[1],> 64 µg/mL
CC(C)(C)c1ccc(-n2c(/C=C/c3ccc(C#N)cc3)nc3ncccc3c2=O)cc1,MIC,Acinetobacter baumannii,> 64 µg/mL
same,MIC,Klebsiella pneumoniae,> 64 µg/mL
same,MIC,Staphylococcus aureus,> 64 µg/mL
same,MIC,Escherichia coli,> 64 µg/mL
same,MIC,Pseudomonas aeruginosa,> 64 µg/mL
same,MIC,[1],> 64 µg/mL
N#Cc1ccc(/C=C/c2nc3ncccc3c(=O)n2Cc2ccc(F)cc2)cc1,MIC,Acinetobacter baumannii,> 64 µg/mL
same,MIC,Klebsiella pneumoniae,> 64 µg/mL
same,MIC,Staphylococcus aureus,> 64 µg/mL
same,MIC,Escherichia coli,> 64 µg/mL
same,MIC,Pseudomonas aeruginosa,> 64 µg/mL
same,MIC,[1],> 64 µg/mL
COc1ccc(-c2ccc3c(=O)n(-c4cccc(Cl)c4)c(C)nc3c2)cc1,MIC,Acinetobacter baumannii,> 64 µg/mL
same,MIC,Klebsiella pneumoniae,> 64 µg/mL
same,MIC,Staphylococcus aureus,> 64 µg/mL
same,MIC,Escherichia coli,> 64 µg/mL
same,MIC,Pseudomonas aeruginosa,> 64 µg/mL
same,MIC,[1],> 64 µg/mL
COc1cc(-n2c(/C=C/c3ccc(C#N)cc3)nc3ncccc3c2=O)cc(OC)c1OC,MIC,Acinetobacter baumannii,> 64 µg/mL
same,MIC,Klebsiella pneumoniae,> 64 µg/mL
same,MIC,Staphylococcus aureus,64 µg/mL
same,MIC,Escherichia coli,> 64 µg/mL
same,MIC,Pseudomonas aeruginosa,> 64 µg/mL
same,MIC,[1],64 µg/mL
N#Cc1ccc(/C=C/c2nc3ccc(OCc4cn(-c5cccc(Cl)c5)nn4)cc3c(=O)n2Cc2ccccc2)cc1,MIC,Acinetobacter baumannii,> 64 µg/mL
same,MIC,Klebsiella pneumoniae,> 64 µg/mL
same,MIC,Staphylococcus aureus,> 64 µg/mL
same,MIC,Escherichia coli,> 64 µg/mL
same,MIC,Pseudomonas aeruginosa,> 64 µg/mL
same,MIC,[1],> 64 µg/mL
Cc1nc2ccc(-c3ccccc3)cc2c(=O)n1-c1ccccc1,MIC,Acinetobacter baumannii,> 64 µg/mL
same,MIC,Klebsiella pneumoniae,> 64 µg/mL
same,MIC,Staphylococcus aureus,> 64 µg/mL
same,MIC,Escherichia coli,> 64 µg/mL
same,MIC,Pseudomonas aeruginosa,> 64 µg/mL
same,MIC,[1],> 64 µg/mL
N#Cc1ccc(/C=C/c2nc3ncccc3c(=O)n2-c2cccc(O)c2)cc1,MIC,Acinetobacter baumannii,> 64 µg/mL
same,MIC,Klebsiella pneumoniae,> 64 µg/mL
same,MIC,Staphylococcus aureus,> 64 µg/mL
same,MIC,Escherichia coli,> 64 µg/mL
same,MIC,Pseudomonas aeruginosa,> 64 µg/mL
same,MIC,[1],> 64 µg/mL
